For two molecules, TGI results are on record in PubChem BioAssay (NCI).

Test systems include RXF-631 renal; HOP-18 NSCLC; P388 leukemia.
Test in all cases: NCI tumour cell line growth inhibition, 48 h

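In this assay, cells in 96-well plates receive the compound at five concentrations for 48 hours. Endpoints are linearly interpolated between the surrounding concentrations. TGI: concentration producing complete growth inhibition.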

In the case of `CC1CC(c2ccc([N+](=O)[O-])cc2)=Nc2ccccc2S1=O` (stereo not drawn), in the test with RXF-631 renal, the TGI amounted to 52.6 µM.

Turning to `C/C=C1/C(=O)O[C@]23C=C[C@@H]4C(C(=O)OC)=CO[C@H](O[C@@H]12)[C@@H]43`, the values for the TGI in the test with HOP-18 NSCLC and in the test with P388 leukemia were 10.4 µM and 1.83 µM, respectively.
